Laboratory results as given in paper PMC5717258, “Bioaccumulation of pharmaceuticals and personal care product chemicals in fish exposed to wastewater effluent in an urban wetland” (Scientific Reports, 2017).
Where two headings read alike, the source gives them in different places.

How the values were obtained:
[1] = in vivo; conditions: goldfish (Carassius auratus), in vivo
Text: Cages were visited weekly, and fish (13/cage) were fed during the visits (20 g/cage). All animal experiments were in accordance with CCAC guidance and approved by the GLLFAS-WSTD Animal Care Committee (Government of Canada). Further details on the caging and preparation of the fish and animal care protocols are provided in Simmons et al.[32]. […] A fourth site, Jordan Harbour (JH), a widening of 20 Mile Creek adjacent to Lake Ontario near Jordan ON, served as a reference site. Mass and fork length were measured and recorded. Plasma collection and storage is described in the SI. Plasma of caged goldfish was divided for proteome, metabolome and PPCP analysis. Due to limited volumes, pooled samples of plasma from 25 individual fish (50 µL/individual) was pooled to yield one sample from at each location for PPCP analysis.
(§1) A total of 20 fish plasma samples from the pooled caged fish (7) and the wild fish (13) along with 12 water samples were selected for analysis. […] A full list of analytes is provided in Supplementary Information. Mass labelled^13C-, or deuterated surrogate internal standards were used for quantification of all analytes via the isotope dilution/surrogate standard quantitation method. Prior to extraction and/or clean-up procedures, aqueous samples were adjusted to pH 2.0, spiked with extraction surrogate standards, then adjusted to pH 4 using tetrasodium ethylenediamine-tetraacetate dihydrate. Plasma samples (2.3–2.5 g) were spiked with extraction surrogate standards, sonicated with 20 mL acetonitrile, then diluted with ultra-pure water to 200 mL. The extracts were cleaned up by solid phase extraction using Oasis HLB cartridges (Waters Ltd. Mississauga ON), filtered, and analyzed by liquid chromatography-electrospray ionization-tandem mass spectrometry (LC/ESI-MS/MS) in positive or negative ionization mode. The analysis of the complete list of analytes (SI Table S1) required a total of five instrumental runs.
(§2) Quality assurance steps included analysis of lab blanks for water and plasma along with matrix recovery spikes. […] Detection limits (DLs) were defined as lowest calibration level adjusted to the maximal sample size or 3 times the signal of the noise in the target channel converted to an equivalent sample, whichever was greater. […] Where analytes were detected in two or more samples of the same species or series of water samples, non-detect values were converted to ½ the DL value for reporting purposes.

[2] = Description: (§3) Plasma from 9 individual male fish (500 µL/individual) was pooled to yield 3 samples for PPCP analysis. […] Plasma from 6 individual carp (2.3–3.5 g) from each location was selected for PPCP analysis. […] Plasma samples were frozen (−80 °C) until analysis.
as §1, §2

[3] = remark: listed apart in the source
Description: as §3, §1

[4] = cited from earlier work; for Salmon (whole body) concentration: Table S7, ref Meador et al. (2016)
[5] = cited from earlier work
[6] = Plasma bioaccumulation factor (BAFP), goldfish; format: in vivo, goldfish (Carassius auratus); conditions: CPM2; water sample of August 2012
Description: Bioaccumulation factor (BAFP) was calculated as concentration in fish plasma (ng/g × 1000) divided by concentration in water (ng/L). Two widely used modeling approaches for predicting organic contaminant bioaccumulation were assessed: the BCF-BAF model for whole body BAFs[53] and the fish-plasma concentration calculation of Huggett et al.[35] modified by Berninger et al.[54]. The latter involves estimating an octanol-water partition coefficient (Kow) adjusted for fraction ionized (log D), using the pKa value to adjust log Kow[54] taking into account the pH of CPM waters. Further information on the calculation of log D, blood-water partitioning (PBW), and plasma concentrations (FPC) is given in the SI.

[7] = set-up: method as in US EPA Chemistry Dashboard; conditions: ref US EPA Chemistry Dashboard; cited from earlier work
[8] = cited from earlier work; remark: listed apart in the source
[9] = Jordan Harbour brown bullhead, wet weight
[10] = carp (Cyprinus carpio), in vivo
[11] = female, carp (Cyprinus carpio), in vivo
[12] = male, carp (Cyprinus carpio), in vivo
[13] = male, goldfish (Carassius auratus), in vivo

**Q.** What does the source list for `Cn1c(=O)c2c(ncn2C)n(C)c1=O` [Caffeine]?
**A.** concentration at 21 days ([1]; plasma concentration, CPM1 caged, CPM1, 07-2014, pooled plasma, wet weight): 3.38 ng/g; concentration at 21 days ([1]; plasma concentration, CPM2 caged, CPM2, 07-2014, pooled plasma, wet weight): 1.46 ng/g; concentration at 21 days ([1]; plasma concentration, CPM3 caged, CPM3, 07-2014, pooled plasma, wet weight): 1.53 ng/g; concentration at 21 days ([1]; plasma concentration, JH caged, Jordan Harbour reference site, 07-2014, pooled plasma, wet weight): < 3 ng/g; plasma concentration, JH-C 54 ([2]; Jordan Harbour carp 54, Nov 7, 2011, male, wet weight): < 3.18 ng/g; plasma concentration, JH-C 73 ([2]; Jordan Harbour carp 73, Nov 7, 2011, female, wet weight): < 3.09 ng/g; plasma concentration, JH-C 74 ([2]; Jordan Harbour carp 74, Nov 7, 2011, male, wet weight): < 3.19 ng/g; plasma concentration, JH-C 75 ([2]; Jordan Harbour carp 75, Nov 7, 2011, female, wet weight): < 4.52 ng/g; plasma concentration, JH-C 78 ([2]; Jordan Harbour carp 78, Nov 7, 2011, male, wet weight): < 3.13 ng/g; plasma concentration, JH-C 82 ([2]; Jordan Harbour carp 82, Nov 7, 2011, female, wet weight): < 3.01 ng/g; plasma concentration, CPM wild-02 ([2]; wild goldfish sample 02, 2012, wet weight): 1.525 ng/g; plasma concentration, CPM wild-03 ([2]; wild goldfish sample 03, 2012, wet weight): 1.565 ng/g; plasma concentration, JH-BB [3, 9]: < 5.7 ng/g; Salmon (whole body) concentration [4]: 18 ng/g; Sculpin (whole body) concentration ([5]; Table S7, ref Meador et al. (2016)): 13 ng/g

**Q.** What does the source list for `CC1CCc2cc(F)cc3c(=O)c(C(=O)O)cn1c23` (stereo not shown) [Flumequine]?
**A.** concentration at 21 days ([1]; caged goldfish plasma, range of concentrations): 0.16 to 1.37 ng/g; concentration at 21 days ([1]; plasma concentration, CPM1 caged): 1.1 ng/g; concentration at 21 days ([1]; plasma concentration, CPM2 caged): 0.146 ng/g; concentration at 21 days ([1]; plasma concentration, CPM3 caged): 0.344 ng/g; concentration at 21 days ([1]; plasma concentration, JH caged): < 0.3 ng/g; Cootes carp plasma, range of concentrations [2, 10]: 0.16 to 1.23 ng/g; plasma concentration, carp, this study (mean) [2, 10]: 0.70 ng/g wet weight or ng/mL for plasma; plasma concentration, CPM-C 10 [2, 11]: 1.23 ng/g; plasma concentration, CPM-C 13 [2, 11]: 1.14 ng/g; plasma concentration, CPM-C 36 [2, 11]: 0.698 ng/g; plasma concentration, JH-C 73 [2, 11]: 0.155 ng/g; plasma concentration, JH-C 75 [2, 11]: 0.474 ng/g; plasma concentration, JH-C 82 [2, 11]: 0.151 ng/g; plasma concentration, CPM-C 01 [2, 12]: 0.158 ng/g; plasma concentration, CPM-C 2 [2, 12]: 0.799 ng/g; plasma concentration, CPM-C 20 [2, 12]: 0.162 ng/g; plasma concentration, JH-C 54 [2, 12]: 0.159 ng/g; plasma concentration, JH-C 74 [2, 12]: 0.160 ng/g; plasma concentration, JH-C 78 [2, 12]: 0.252 ng/g; plasma concentration, CPM wild-01 [2, 13]: 1.37 ng/g; plasma concentration, CPM wild-02 [2, 13]: 0.188 ng/g; plasma concentration, CPM wild-03 [2, 13]: 0.157 ng/g; plasma concentration, goldfish, this study (mean) [2, 13]: 0.57 ng/g wet weight or ng/mL for plasma; wild goldfish plasma, range of concentrations [2, 13]: 0.15 to 1.1 ng/g; plasma concentration, JH-BB ([3]; Brown Bullhead (Ameiurus nebulosus), in vivo): 0.622 ng/g; BAFP, CPM2 goldfish caged [6]: 38 L/kg

**Q.** With `O=C(Nc1ccc(Cl)cc1)Nc1ccc(Cl)c(Cl)c1` [Triclocarban] as the molecule, how does the “Cootes carp plasma, range of concentrations” value ([2]; Cootes Paradise Marsh, range) read?
**A.** Its value is 0.32 to 3.35 ng/g.

**Q.** And the “plasma concentration, CPM-C 01” value ([2]; Cootes carp 01, 2011, male, wet weight)?
**A.** The value was 0.317 ng/g.

**Q.** What about the “plasma concentration, CPM-C 2” value ([2]; Cootes carp 2, Sep 27, 2011, male, wet weight) of the same molecule?
**A.** The value was 0.431 ng/g.

**Q.** What about the “plasma concentration, CPM-C 10” value ([2]; Cootes carp 10, Sep 28, 2011, female, wet weight) of the same molecule?
**A.** The value was 0.453 ng/g.

**Q.** And the “plasma concentration, CPM-C 13” value ([2]; Cootes carp 13, Sep 28, 2011, female, wet weight)?
**A.** Its value is 0.468 ng/g.

**Q.** What about the “plasma concentration, CPM-C 20” value ([2]; Cootes carp 20, 2011, male, wet weight) of the same molecule?
**A.** The value was 0.324 ng/g.

**Q.** And the “plasma concentration, CPM-C 36” value ([2]; Cootes carp 36, Oct 3, 2011, female, wet weight)?
**A.** The value was 3.35 ng/g.

**Q.** And the “Carp plasma concentration, this study (range)” value ([2]; Table S7)?
**A.** Its value is 0.32 to 3.35 ng/g.

**Q.** And the “plasma concentration, carp, this study (mean)” value ([2]; Table S8)?
**A.** The value was 0.89 ng/g wet weight or ng/mL for plasma.

**Q.** What about the “plasma concentration, goldfish, this study (mean)” value ([2]; Table S8) of the same molecule?
**A.** The value was “< mdl”.

**Q.** What about the “plasma concentration, JH-BB” value [3, 9] of the same molecule?
**A.** Its value is under 1.14 ng/g.

**Q.** And the “log Kow” value [7]?
**A.** The value was 4.90.

**Q.** And the “BAFP in carp plasma, median” value [8]?
**A.** The value was 6.9.

**Q.** What about the “plasma concentration, crucian carp & common carp” value ([8]; mean ± SD, ref Tanoue et al.16) of the same molecule?
**A.** Its value is 0.34±0.20 ng/g wet weight or ng/mL for plasma.

**Q.** What about the “Salmon (whole body) concentration” value [4] of the same molecule?
**A.** Its value is 6.5 ng/g.

**Q.** And the “whole fish concentration, salmon” value ([4]; ref Meador et al. 18)?
**A.** The value was 6.5 ng/g wet weight or ng/mL for plasma.

**Q.** What about the “whole fish concentration, sculpin” value ([5]; ref Meador et al. 18) of the same molecule?
**A.** The value was “< mdl”.
